ChEMBL document CHEMBL5050861 (2021)
pIC50: −log10 of the molar value. In brackets after ≈: the same amount, converted by molar mass.

Legend:
[1] = Permeability of compound by PAMPA assay; type: ADME; conditions: for Papp: read-out: permeability
[2] = Stability of compound in rat microsomes assessed as half-life; type: ADME, Microsome
[3] = Inhibition of recombinant mouse GALK1 using ATP as substrate incubated for 1 hr and measured by Kinase-Glo assay; conditions: read-out: IC50
[4] = Kinetic aqueous solubility of the compound; type: physicochemical; conditions: buffer; read-out: Kinetic_solubility

| Compound | Papp [1] [×10⁻⁶ cm/s] | half-life [2] [min] | pIC50 [3] | solubility kinetic [4] [µg/mL] | permeability [1] |
| --- | --- | --- | --- | --- | --- |
| CC1=C(C(=O)Nc2cc(C(=O)O)ccn2)C(c2cccc([N+](=O)[O-])c2Cl)N=C(Nc2nc3ccc(F)cc3o2)N1 (stereo not given) | < 1 | > 30 | 4.46 | > 84 | – |
| CC1=C(C(=O)Nc2cc(C(=O)O)ccn2)C(c2ccc(C(F)(F)F)cc2Cl)N=C(Nc2nc3ccc(F)cc3o2)N1 (stereo not given) | < 1 | > 30 | 4.96 | 19.4 (≈ 32.9 µM) | – |
| CC1=C(C(=O)NCc2cccc(C(=O)O)c2)C(c2ccccc2Cl)N=C(Nc2nc3ccccc3o2)N1 (stereo not given) | < 1.3 | > 30 | 4.71 | 60.6 (≈ 117 µM) | – |
| CCn1cc(CNC(=O)C2=C(C)NC(Nc3nc4ccc(F)cc4o3)=NC2c2ccc(C)cc2Cl)cn1 (stereo not given) | < 21.9 | 9.22 | 5.16 | < 1 | – |
| CC1=C(C(=O)Nc2nncs2)C2(CCCC2)N=C(Nc2nc3ccccc3o2)N1 | < 1 | > 30 | 4.71 | < 1 | – |
| CC1=C(C(=O)Nc2nnc(-c3cccnc3)s2)C(c2ccccc2Cl)N=C(Nc2nc3cc(C)ccc3o2)N1 (stereo not given) | < 1.5 | > 30 | 4.96 | < 1 | – |
| CC1=C(C(=O)Nc2nncs2)C(c2ccc(C)cc2Cl)N=C(Nc2nc3ccccc3o2)N1 (stereo not given) | < 14.4 | > 30 | 5.21 | < 1 | – |
| COc1ccc2nc(NC3=NC(c4ccccc4Cl)C(C(=O)Nc4cc(C(=O)O)ccn4)=C(C)N3)oc2c1 (stereo not given) | < 1 | > 30 | 4.66 | > 79 | – |
| CC1=C(C(=O)Nc2cc(C(=O)O)ccn2)[C@@H](c2ccccc2Cl)N=C(Nc2nc3cccc(N)c3o2)N1 | < 1.3 | > 30 | 4.46 | > 76 | – |
| CCOc1ccc(C2N=C(Nc3nc4ccc(F)cc4o3)NC(C)=C2C(=O)Nc2cc(C(=O)O)ccn2)c(Cl)c1 (stereo not given) | < 1 | > 30 | 5.41 | 11.3 (≈ 20 µM) | – |
| CC1=C(C(=O)Nc2cc(C(=O)O)ccn2)C(c2ccc(-c3cnc(C)nc3)cc2Cl)N=C(Nc2nc3ccc(F)cc3o2)N1 (stereo not given) | < 1 | > 30 | 6.16 | > 90 | – |
| CC1=C(C(=O)Nc2ccc(C(=O)O)nc2)C(c2ccccc2Cl)N=C(Nc2nc3ccccc3o2)N1 (stereo not given) | < 1 | > 30 | 5.01 | 24.6 (≈ 48.9 µM) | – |
| CC1=C(C(=O)Nc2cc(C(=O)O)ccn2)[C@H](c2ccc(C)cc2Cl)N=C(Nc2nc3cccc(N)c3o2)N1 | < 1 | > 30 | 5.85 | > 53 | – |
| CC1=C(C(=O)NCc2ccccc2CO)C(c2ccccc2Cl)N=C(Nc2nc3ccccc3o2)N1 (stereo not given) | – | 5.09 | 4.81 | < 1 | 1362.3 10^-6 cm/s |
| CC1=C(C(=O)Nc2nnc(-c3cccnc3)s2)C(c2ccccc2Cl)N=C(Nc2nc3ccccc3o2)N1 (stereo not given) | < 3.7 | > 30 | 5.01 | < 1 | – |
| CC1=C(C(=O)Nc2cc(C(=O)O)ccn2)[C@@H](c2ccccc2Cl)N=C(Nc2nc3ccccc3o2)N1 | < 1 | > 30 | 4.71 | > 74 | – |
| O=C1CC(C(=O)O)CC2=C1C(c1ccccc1Cl)N=C(Nc1nc3ccccc3o1)N2 (stereo not given) | < 1 | > 30 | 5.16 | 52.6 (≈ 120 µM) | – |
| CC1=C(C(=O)N2CCOCC2)C(c2ccccc2Cl)N=C(Nc2nc3ccccc3o2)N1 (stereo not given) | – | 2.1 | 4.61 | 15.3 (≈ 33.9 µM) | 1046.7 10^-6 cm/s |

| Compound | Papp [1] [×10⁻⁶ cm/s] | half-life [2] [min] | pIC50 [3] | solubility kinetic [4] [µg/mL] | permeability [1] |
| --- | --- | --- | --- | --- | --- |
| CC1=C(C(=O)Nc2nncs2)C(c2nn(C)cc2Br)N=C(Nc2nc3ccccc3o2)N1 (stereo not given) | – | > 30 | 4.71 | 6.4 (≈ 12.4 µM) | 1044 10^-6 cm/s |
| CC1=C(C(=O)Nc2ccc(C#N)cc2)C(c2ccccc2Cl)N=C(Nc2nc3ccccc3o2)N1 (stereo not given) | < 18.7 | 25.3 | 4.86 | < 1 | – |
| CC1=C(C(=O)Nc2nncs2)C(c2ccc(Cl)cc2Cl)N=C(Nc2nc3ccccc3o2)N1 (stereo not given) | < 4.9 | > 30 | 5.21 | < 1 | – |
| O=C1CC(C(=O)Nc2nncs2)CC2=C1C(c1ccccc1Cl)N=C(Nc1nc3ccccc3o1)N2 (stereo not given) | < 5 | > 30 | 4.91 | 1.23 (≈ 2.37 µM) | – |
| CC1=C(C(=O)Nc2nnc(-c3cccnc3)s2)C(c2ccccc2Cl)N=C(Nc2nc3cc(Cl)ccc3o2)N1 (stereo not given) | < 3.4 | > 30 | 4.71 | < 1 | – |
| CC1=C(C(=O)Nc2ccc(N3CCNCC3)cc2)C(c2ccccc2Cl)N=C(Nc2nc3ccccc3o2)N1 (stereo not given) | 894 | 8.63 | 4.31 | 2.42 (≈ 4.46 µM) | – |
| CC1=C(C(=O)Nc2cc(C(=O)O)ccn2)C(c2ccc(C#N)cc2Cl)N=C(Nc2nc3ccc(F)cc3o2)N1 (stereo not given) | < 1 | > 30 | 5.41 | > 81 | – |
| CC1=C(C(=O)Nc2cc(C(=O)O)ccn2)[C@H](c2ccccc2Cl)N=C(Nc2nc3ccccc3o2)N1 | < 1 | > 30 | 5.46 | > 74 | – |
| CC1=C(C(=O)Nc2ccc(-n3cccn3)cc2)C(c2ccccc2Cl)N=C(Nc2nc3ccccc3o2)N1 (stereo not given) | < 11.8 | 16.4 | 4.91 | < 1 | – |
| CC1=C(C(=O)Nc2cc(C(=O)O)ccn2)[C@@H](c2ccccc2Cl)N=C(Nc2nc3ccc(F)cc3o2)N1 | < 1 | > 30 | 4.86 | 17.3 (≈ 33.2 µM) | – |
| CC1=C(C(=O)NCCN(C)C)C(c2ccccc2Cl)N=C(Nc2nc3ccccc3o2)N1 (stereo not given) | > 1230 | > 30 | 4.81 | > 67 | – |
| CCOC(=O)N1C(Nc2nc3ccccc3o2)=NC(c2ccccc2Cl)C(C(=O)Nc2cc(C(=O)O)ccn2)=C1C (stereo not given) | < 1 | > 30 | 4.71 | > 85 | – |
| CC1=C(C(=O)Nc2cc(C(=O)O)ccn2)C(c2ccc(-n3cccn3)cc2Cl)N=C(Nc2nc3ccc(F)cc3o2)N1 (stereo not given) | < 1 | > 30 | 5.46 | > 87 | – |
| CC1=C(C(=O)Nc2cc(C(=O)O)ccn2)[C@@H](c2ccc(C)cc2Cl)N=C(Nc2nc3cccc(N)c3o2)N1 | < 1 | > 30 | 4.66 | > 78 | – |
| CC1=C(C(=O)Nc2cccc(C(=O)O)n2)C(c2ccccc2Cl)N=C(Nc2nc3ccccc3o2)N1 (stereo not given) | < 1 | > 30 | 5.16 | 60 (≈ 119 µM) | – |
| CC1=C(C(=O)Nc2cc(C(=O)O)ccn2)C(c2ccccc2Cl)N=C(Nc2nc3ccccc3o2)N1C(=O)c1ccccc1 (stereo not given) | < 1 | > 30 | 5.11 | 73.9 (≈ 122 µM) | – |
| CC1=C(C(=O)Nc2cccc(CO)c2)C(c2ccccc2Cl)N=C(Nc2nc3ccccc3o2)N1 (stereo not given) | – | > 30 | 5.01 | < 1 | 1124.1 10^-6 cm/s |
